Source: the supplement of paper PMC10307832

Assays:
Experiment in all cases: relative viability (nuclei count vs DMSO), 5 days (fraction); higher = more cells survive
[1] = compound: C#Cc1cccc(Nc2ncnc3cc(OC)c(OCCCCCCC(=O)NO)cc23)c1 [CUDC-101] + COc1cc2c(Oc3ccc(NC(=O)C4(C(=O)Nc5ccc(F)cc5)CC4)cc3F)ccnc2cc1OCCCN1CCOCC1 [Foretinib] (partner 0.25 µM)
Outline: (§1)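 Five library-drug doses in √10 steps were combined with a fixed anchor-drug dose, or a single drug was given alone, by pin tool to lung cancer cell lines in 1536-well plates the day after seeding. Nuclei were stained and counted after 5 days. Relative viability is the nuclei count in treated wells over that in vehicle wells, taken as the median of duplicate plates.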

[2] = compound: C#Cc1cccc(Nc2ncnc3cc(OC)c(OCCCCCCC(=O)NO)cc23)c1 [CUDC-101] + Cc1nc(NC(=O)N2CCC[C@H]2C(N)=O)sc1-c1ccnc(C(C)(C)C(F)(F)F)c1 [Alpelisib] (partner 2 µM)
Outline: as §1

[3] = compound: C1=CC=C2C(=C1)N=C(S2)C(C#N)C3=NC(=NC=C3)NCCC4=CN=CC=C4 + CS(=O)(=O)CCNCc1ccc(-c2ccc3ncnc(Nc4ccc(OCc5cccc(F)c5)c(Cl)c4)c3c2)o1 [Lapatinib] (partner 2 µM)
Outline: as §1

[4] = compound: COc1cc(N2CCC(N3CCN(C)CC3)CC2)ccc1Nc1ncc(Cl)c(Nc2ccccc2S(=O)(=O)C(C)C)n1 [NVP-TAE684] + CS(=O)(=O)CCNCc1ccc(-c2ccc3ncnc(Nc4ccc(OCc5cccc(F)c5)c(Cl)c4)c3c2)o1 [Lapatinib] (partner 2 µM)
Outline: as §1

Cell Line	relative viability ([1]; first compound 0.01 µM)	relative viability ([1]; first compound 0.03162 µM)	relative viability ([1]; first compound 0.1 µM)	relative viability ([1]; first compound 0.3162 µM)	relative viability ([1]; first compound 1 µM)	relative viability ([2]; first compound 0.01 µM)	relative viability ([2]; first compound 0.03162 µM)	relative viability ([2]; first compound 0.1 µM)	relative viability ([2]; first compound 0.3162 µM)	relative viability ([2]; first compound 1 µM)	relative viability ([3]; first compound 0.005 µM)	relative viability ([3]; first compound 0.01581 µM)	relative viability ([3]; first compound 0.05 µM)	relative viability ([3]; first compound 0.1581 µM)	relative viability ([3]; first compound 0.5 µM)	relative viability ([4]; first compound 0.2 µM)	relative viability ([4]; first compound 0.6325 µM)	relative viability ([4]; first compound 2 µM)
RERF-LC-KJ	0.884	0.889	0.791	0.812	0.644	0.795	0.835	0.828	0.835	0.742	0.982	0.934	0.77	0.883	0.732	0.871	0.867	0.905
A-427	1.01	0.975	1.01	1.06	0.877	1.15	1.1	1.11	1.02	0.887	0.78	0.889	1.01	1.12	1.08	1.12		0.922
EKVX	0.976	0.639	0.681	1.18	0.859	0.833	0.817	0.849	1.03	0.682	0.237	0.185	0.201	0.211	0.195	0.199	0.189	0.155
NCI-H460	0.991	0.917	1.02	1.03	0.93	0.478	0.42	0.589	0.443	0.465		1.12	1.06	1.85	0.273	0.903	1.29	0.441
HARA	0.903	0.78	0.853	0.611	0.285	0.752	0.661	0.583	0.54	0.225	0.692	0.862	0.643	1.01	0.676	1.09	0.626	0.232
NCI-H1944	0.931	0.691	0.861	0.612	0.397	0.819	0.682	0.799	0.756	0.514	0.89	0.847	0.746	0.977	0.819		0.798	0.607
BEN	0.822	0.547	0.804	0.581	0.648	1.21	0.887	1.17	0.848	0.737	0.561	0.689	0.62	0.792	0.826	0.579	0.552	0.62
PC-14	0.939	0.745	0.495	0.628	0.21	0.983	0.894	0.62	0.673	0.287	0.305	0.331	0.303	0.454	0.296	0.336	0.305	0.245
NCI-H322M	0.833	0.706	0.834	0.703	0.503	0.775	0.704	0.725	0.733	0.725	0.545	0.487	0.592	0.687	0.504	0.637	0.609	0.404
NCI-H1651	0.821	0.741	1.07	0.82	0.609	1.03	0.772	1	0.93	0.817	0.76	0.697	1.03	1.11	0.872	0.998	0.834	0.563
LCLC-97TM1	0.844	0.824	0.962	0.829	0.666	0.261	0.266	0.235	0.233	0.15	0.971	0.803	0.897	0.954	0.674	1.51	0.547	0.287
NCI-H727	0.975	0.85	0.685	0.778	0.424	0.59	0.478	0.698	0.595	0.295	0.857	0.821	0.813	0.83	0.795	0.917	0.695	0.346
NCI-H1623	0.847	0.821	0.711	0.911	0.483													
NCI-H1666	0.958	0.979	1	1.06	0.932	0.958	0.949	1.05	0.974	0.498	0.486	0.636	0.631	0.665	0.584	0.588	0.447	0.283
IA-LM	1.27	1.1	1.12	1.11	0.657	0.676	0.769	0.678	0.745	0.388		1.02	0.824	0.888	0.673	0.698	0.66	0.427
NCI-H1792						0.702	0.57	0.695	0.734	0.645		0.881	0.936	1.52	0.661	0.913	0.825	0.89
NCI-H1299	1.08	1.06	1.13	1.12	1.04	1.08	1	1.11	1.06	1.05	0.941	0.991	0.946	0.998	0.918	1.03	0.964	0.836
HCC-366	0.939	0.93	0.95	0.847	0.882	0.555	0.197	0.437	0.547	0.337	0.941	1.15	0.921	1.18	1.07	1.58	0.932	0.963
NCI-H1437	1.38	1.08	1.27	1.38	1.27	1.04	0.886	0.988	0.983	0.679	0.762	0.902	0.987	0.9	0.704	0.874	0.729	0.418
